ChEMBL document CHEMBL1137935 (Bioorg Med Chem Lett, 2004)
Blank lines part the entries; values can stand above or below the compound they belong to. Calls of active or inactive are those of the source. The rule behind the calls is not given here.

How the values were obtained:
[1] = target: T1, Adenosine receptor A1 (Cavia porcellus) (UniProt P47745); assay: Binding affinity against adenosine A1 receptor using [3H]CCPA in guinea pig DDT membrane; 7.5+/-1.9
T1 sequence (whole entry): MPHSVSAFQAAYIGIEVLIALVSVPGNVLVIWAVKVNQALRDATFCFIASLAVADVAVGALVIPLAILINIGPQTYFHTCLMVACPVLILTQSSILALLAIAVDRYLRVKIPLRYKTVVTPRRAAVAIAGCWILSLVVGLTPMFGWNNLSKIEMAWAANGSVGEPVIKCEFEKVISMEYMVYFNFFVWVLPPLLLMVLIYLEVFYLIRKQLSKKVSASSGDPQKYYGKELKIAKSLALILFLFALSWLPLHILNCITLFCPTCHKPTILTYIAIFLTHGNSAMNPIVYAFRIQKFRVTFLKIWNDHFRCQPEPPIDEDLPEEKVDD

[2] = target: T1, Adenosine receptor A1 (Cavia porcellus); assay: Binding affinity against […] using [35S]GTP-gamma-S, radioligand in guinea pig.; format: functional
[3] = target: T1, Adenosine receptor A1 (Cavia porcellus); assay: Binding affinity against adenosine A1 receptor using [3H]CPX in guinea pig DDT membrane; format: cell membranes
[4] = target: T1, Adenosine receptor A1 (Cavia porcellus); assay: Binding affinity against adenosine A1 receptor using [3H]CPX in guinea pig DDT membrane; 343+/-137
[5] = target: T1, Adenosine receptor A1 (Cavia porcellus); assay: Binding affinity against adenosine A1 receptor using [3H]CPX in guinea pig DDT membrane; 604+/-241
[6] = target: T1, Adenosine receptor A1 (Cavia porcellus); assay: Binding affinity against adenosine A1 receptor using [3H]CPX in guinea pig DDT membrane; 473+/-329
[7] = target: T1, Adenosine receptor A1 (Cavia porcellus); assay: Binding affinity against adenosine A1 receptor using [3H]CPX in guinea pig DDT membrane; 614+/-78
[8] = target: T1, Adenosine receptor A1 (Cavia porcellus); assay: Binding affinity against adenosine A1 receptor using [3H]CCPA in guinea pig DDT membrane; 102+/-45
[9] = target: T1, Adenosine receptor A1 (Cavia porcellus); assay: Binding affinity against adenosine A1 receptor using [3H]CPX in guinea pig DDT membrane; 1571+/-245
[10] = target: T1, Adenosine receptor A1 (Cavia porcellus); assay: Binding affinity against adenosine A1 receptor using [3H]-CCPA in guinea pig DDT membrane; 180+/-23
[11] = target: T1, Adenosine receptor A1 (Cavia porcellus); assay: Binding affinity against adenosine A1 receptor using [3H]CPX in guinea pig DDT membrane; 6250+/-1767
[12] = target: T1, Adenosine receptor A1 (Cavia porcellus); assay: Binding affinity against adenosine A1 receptor using [3H]CCPA in guinea pig DDT membrane; 2400+/-16
[13] = test system: Adenosine receptor A1 (Cavia porcellus); assay: Binding affinity against […] using [35S]GTP-gamma-S, in guinea pig; not active
[14] = target: T1, Adenosine receptor A1 (Cavia porcellus); assay: Binding affinity against adenosine A1 receptor using [3H]CPX in guinea pig DDT membrane; 338+/-98
[15] = target: T1, Adenosine receptor A1 (Cavia porcellus); assay: Binding affinity against adenosine A1 receptor using [3H]CCPA in guinea pig DDT membrane; 96+/-11
[16] = target: T1, Adenosine receptor A1 (Cavia porcellus)
[17] = target: T1, Adenosine receptor A1 (Cavia porcellus); assay: Binding affinity against adenosine A1 receptor using [3H]CPX in guinea pig DDT membrane; 1945+/-1316
[18] = target: T1, Adenosine receptor A1 (Cavia porcellus); assay: Binding affinity against adenosine A1 receptor using [3H]CPX in guinea pig DDT membrane; 400+/-38
[19] = target: T1, Adenosine receptor A1 (Cavia porcellus); assay: Binding affinity against adenosine A1 receptor using [3H]CPX in guinea pig DDT membrane; 913+/-517
[20] = target: T1, Adenosine receptor A1 (Cavia porcellus); assay: Binding affinity against adenosine A1 receptor using [3H]CPX in guinea pig DDT membrane; 158+/-21
[21] = target: T1, Adenosine receptor A1 (Cavia porcellus); assay: Binding affinity against adenosine A1 receptor using [3H]CCPA in guinea pig DDT membrane; 21+/-0
[22] = target: T1, Adenosine receptor A1 (Cavia porcellus); remark: listed apart in the source
[23] = target: T1, Adenosine receptor A1 (Cavia porcellus); remark: listed apart in the source
[24] = target: T1, Adenosine receptor A1 (Cavia porcellus); assay: Binding affinity against adenosine A1 receptor using [3H]CPX in guinea pig DDT membrane; 5497+/-180
[25] = target: T1, Adenosine receptor A1 (Cavia porcellus); assay: Binding affinity against adenosine A1 receptor using [3H]CCPA in guinea pig DDT membrane; 971+/-139

- Ki high [1]: 7.5 nM
- efficacy relative to CPA [2]: 98%
- Ki low [3]: 165 nM
Structure (SMILES): OC1[C@@H](O)C(n2cnc3c(NC4CCOC4)ncnc32)O[C@@H]1COCc1ccccc1 (single isomer, unassigned)

- Ki low [4]: 343 nM
- efficacy relative to CPA [2]: 71%
Structure (SMILES): OC1[C@@H](O)C(n2cnc3c(NC4CCOC4)ncnc32)O[C@@H]1COc1ccc(F)cc1 (single isomer, unassigned)

- Ki low [5]: 604 nM
- efficacy relative to CPA [2]: 70%
Structure (SMILES): OC1[C@@H](O)C(n2cnc3c(NC4CCOC4)ncnc32)O[C@@H]1COc1cccc(F)c1 (single isomer, unassigned)

- Ki low [6]: 473 nM
- efficacy relative to CPA [2]: 62%
Structure (SMILES): OC1[C@@H](O)C(n2cnc3c(NC4CCOC4)ncnc32)O[C@@H]1COc1ccccc1Cl (single isomer, unassigned)

- Ki low [7]: 614 nM
- Ki high [8]: 102 nM
- efficacy relative to CPA [2]: 89%
Structure (SMILES): OC1[C@@H](O)C(n2cnc3c(NC4CCOC4)ncnc32)O[C@@H]1CSc1c(Cl)cccc1Cl (single isomer, unassigned)

- Ki low [9]: 1570 nM
- Ki high [10]: 180 nM
- efficacy relative to CPA [2]: 84%
Structure (SMILES): OC1[C@@H](O)C(n2cnc3c(NC4CCOC4)ncnc32)O[C@@H]1CSc1cccc(F)c1 (single isomer, unassigned)

- Ki low [11]: 6250 nM
- Ki high [12]: 2400 nM
- CPA [13]: inactive
Structure (SMILES): OC1[C@@H](O)C(n2cnc3c(NC4CCOC4)ncnc32)O[C@@H]1CSc1ccccc1C(F)(F)F (single isomer, unassigned)

- Ki low [14]: 338 nM
- Ki high [15]: 96 nM
- efficacy relative to CPA [2]: 74%
Structure (SMILES): OC1[C@@H](O)C(n2cnc3c(NC4CCOC4)ncnc32)O[C@@H]1CSc1ccccc1Cl (single isomer, unassigned)

- efficacy relative to CPA [2]: 110%
- Ki low [16]: 894 nM
Structure (SMILES): OC1[C@@H](O)C(n2cnc3c(NC4CCOC4)ncnc32)O[C@@H]1CSc1ccccn1 (single isomer, unassigned)

- Ki low [17]: 1940 nM
- efficacy relative to CPA [2]: 99%
Structure (SMILES): OC1[C@@H](O)C(n2cnc3c(NC4CCOC4)ncnc32)O[C@@H]1CSc1nc2ccc(Cl)cc2o1 (single isomer, unassigned)

- Ki low [18]: 400 nM
- efficacy relative to CPA [2]: 100%
Structure (SMILES): OC1[C@@H](O)C(n2cnc3c(NC4CCOC4)ncnc32)O[C@@H]1CSc1nc2ccccc2s1 (single isomer, unassigned)

- Ki low [19]: 913 nM
- efficacy relative to CPA [2]: 89%
Structure (SMILES): OC1[C@@H](O)C(n2cnc3c(NC4CCOC4)ncnc32)O[C@@H]1CSc1ncccn1 (single isomer, unassigned)

- Ki low [20]: 158 nM
- Ki high [21]: 21 nM
- efficacy relative to CPA [2]: 106%
Structure (SMILES): OC1[C@@H](O)C(n2cnc3c(NC4CCOC4)ncnc32)O[C@@H]1CSc1nccs1 (single isomer, unassigned)

- Ki low [22]: 543 nM
- Ki high [23]: 3.25 nM
Structure (SMILES): OC[C@H]1O[C@@H](n2cnc3c(N[C@@H]4CCOC4)ncnc32)[C@H](O)C1O (single isomer, unassigned)

- Ki low [24]: 5500 nM
- Ki high [25]: 971 nM
- efficacy relative to CPA [2]: 86%
Structure (SMILES): OC1[C@@H](O)[C@H](n2cnc3c(NC4CCOC4)ncnc32)O[C@@H]1CSc1ccc(F)cc1F (single isomer, unassigned; 19)

- efficacy relative to CPA [2]: 88%
- Ki low [3]: 494 nM
Structure (SMILES): OC1[C@@H](O)[C@H](n2cnc3c(NC4CCOC4)ncnc32)O[C@@H]1CSc1ccc(F)cc1F (single isomer, unassigned; 26)
